The values that follow are results of earlier work, collected in patent publication US20230364095A1, “TOPICAL TREATMENT OF VITILIGO” (INCYTE CORPORATION, priority 2020, published 2023).

Like-named read-outs stand apart in the source and are kept apart here.

The test system of this series is patients with vitiligo.

As to `N#CC[C@H](C1CCCC1)n1cc(-c2ncnc3[nH]ccc23)cn1` [ruxolitinib, (R)-3-(4-(7H-pyrrolo[2,3-d]pyrimidin-4-yl)-1H-pyrazol-1-yl)-3-cyclopentylpropanenitrile], the “Clinical outcome (case report)” value (oral 20 mg BID for 20 weeks, patient with alopecia areata and vitiligo) was “hair regrowth as well as repigmentation of areas affected with vitiligo”.
With `C[C@@H]1CCN(C(=O)CC#N)C[C@@H]1N(C)c1ncnc2[nH]ccc12` [tofacitinib], the “Clinical outcome (case report)” value (oral 5 mg QD, after 5 months, widespread and progressive vitiligo) is “near complete repigmentation”.
